≈ marks a conversion by molar mass, not a printed value.
Assays:
Escherichia coli = assay: in vitro antibacterial evaluation, MIC by broth dilution; type: cell-based; conditions: 18 hours at 35° C.
[1] = anatomic pathology (histopathology of heart and kidney) in mice; type: in vivo; conditions: CD-1 mice, 20 mg/kg intravenously daily for 9 days, necropsy day 10, microscopic histopathology
Procedure: Samples of tissues from necropsied mice were formalin-fixed, paraffin-embedded, sectioned, stained with hematoxylin and eosin, and examined microscopically. Histopathologic findings were recorded. These findings were subjectively graded on a scale corresponding to slight, mild, moderate, marked and severe as compared to untreated controls.

Streptococcus sp. = assay: in vitro antibacterial evaluation, MIC by broth dilution; type: cell-based; conditions: broth dilution, 18 hours at 35° C.
In short: (§1)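 Read-out: the lowest concentration at which the test strain fails to grow. Serial dilutions (64-0.06 μg/mL) in Muller-Hinton II […], 5×10^5 CFU/mL inoculum, NCCLS M7-A2 procedure.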

Staphylococcus sp. = assay: as above; type: cell-based; conditions: broth dilution, 18 hours at 35° C.
In short: as §1

Enterococcus sp. = assay: as above; type: cell-based; conditions: broth dilution, 18 hours at 35° C.
In short: as §1

[2] = system: Staphylococcus aureus-SMITH (GC 4543); assay: acute lethal infection in mice; type: in vivo; conditions: acute lethal infection, female CD-1 mice, intraperitoneal challenge, intravenous 30 min. after infection, 7 day survival
In short: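 Female CD-1 mice (20±2 g) got an intraperitoneal bacterial challenge lethal to untreated controls within 24–48 hr. Compound was dosed intravenously 30 min after infection, five mice per dose. ED50 was calculated from 7-day survival pooled across 3 tests.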

CC(C1CCCCC1)C1NC(=O)CNC(=O)C(CO)NC(=O)C(C(O)C2CNC(=N)N2C2OC(CO)C(O)C(O)C2O)NC(=O)C(C(O)C2CNC(=N)N2)NC(=O)C(Cc2ccc(OC3OC(CO)C(OC4OC5COC6(OC5C(O)C4O)C4CC5CC(C4)CC6C5)C(O)C3O)cc2)NC1=O (stereo not drawn) [Example 221, Cyclo[3-cyclohexyl-2-aminobutanoyl-O-[4-O-[4,6-O-(2-adamantylidene)hexopyranosyl]hexopyranosyl]tyrosyl-3-(2-iminoimidazolidin-4-yl)seryl-3-(3-hexopyranosyl-2-iminoimidazolidin-4-yl)serylserylglycyl]]
MIC Escherichia coli (ATCC 25922) (Escherichia coli): 64 µg/mL (≈ 44.6 µM)
MIC Escherichia coli (GC 4559) (Escherichia coli): 32 µg/mL (≈ 22.3 µM)
MIC Escherichia coli (GC 4560) (Escherichia coli): 2 µg/mL (≈ 1.4 µM)
Anatomical Pathology (Day 10), Heart [1]: 0
Anatomical Pathology (Day 10), Kidney [1]: 0
MIC Streptococcus agalactiae (GC 4564) (Streptococcus sp.): <0.12 µg/mL
MIC Streptococcus pneumoniae (ATCC 6301) (Streptococcus sp.): <0.12 µg/mL
MIC Streptococcus pneumoniae (GC 1894) (Streptococcus sp.): <0.12 µg/mL
MIC Streptococcus pneumoniae (GC 4565) (Streptococcus sp.): <0.12 µg/mL
MIC Streptococcus pyogenes (GC 4563) (Streptococcus sp.): <0.12 µg/mL
MIC Streptococcus pneumoniae (ATCC 6301) (Streptococcus sp.; inoculum 5×10^5 CFU/mL, strain ATCC 6301): <0.12 µg/mL
MIC Streptococcus pneumoniae (GC 1894) (Streptococcus sp.; inoculum 5×10^5 CFU/mL, strain GC 1894): <0.12 µg/mL
MIC Streptococcus pyogenes (GC 4563) (Streptococcus sp.; inoculum 5×10^5 CFU/mL, strain GC 4563): <0.12 µg/mL
MIC Streptococcus agalactiae (GC 4564) (Streptococcus sp.; inoculum 5×10^5 CFU/mL, strain GC 4564): <0.12 µg/mL
MIC Streptococcus pneumoniae (GC 4565) (Streptococcus sp.; inoculum 5×10^5 CFU/mL, strain GC 4565): <0.12 µg/mL
MIC Staphylococcus aureus (ATCC 29213) (Staphylococcus sp.; strain ATCC 29213): 1 µg/mL (≈ 0.698 µM)
MIC Staphylococcus aureus (GC 1131) (Staphylococcus sp.; strain GC 1131): 2 µg/mL (≈ 1.4 µM)
MIC Staphylococcus aureus (GC 3051) (Staphylococcus sp.; strain GC 3051): 2 µg/mL (≈ 1.4 µM)
MIC Staphylococcus aureus (GC 3053) (Staphylococcus sp.; strain GC 3053): 1 µg/mL (≈ 0.698 µM)
MIC Staphylococcus aureus (GC 4541) (Staphylococcus sp.; strain GC 4541): 2 µg/mL (≈ 1.4 µM)
MIC Staphylococcus aureus (GC 4542) (Staphylococcus sp.; strain GC 4542): 2 µg/mL (≈ 1.4 µM)
MIC Staphylococcus aureus-SMITH (GC 4543) (Staphylococcus sp.; strain GC 4543): 2 µg/mL (≈ 1.4 µM)
MIC Staphylococcus aureus (GC 4544) (Staphylococcus sp.; strain GC 4544): 2 µg/mL (≈ 1.4 µM)
MIC Staphylococcus aureus (GC 4545) (Staphylococcus sp.; strain GC 4545): 2 µg/mL (≈ 1.4 µM)
MIC Staphylococcus haemolyticus (GC 4546) (Staphylococcus sp.; strain GC 4546): 2 µg/mL (≈ 1.4 µM)
MIC Coagulase Negative Staphylococcus (GC 4547) (Staphylococcus sp.; strain GC 4547): 2 µg/mL (≈ 1.4 µM)
MIC Coagulase Negative Staphylococcus (GC 4548) (Staphylococcus sp.; strain GC 4548): 1 µg/mL (≈ 0.698 µM)
MIC Coagulase Negative Staphylococcus (GC 4549) (Staphylococcus sp.; strain GC 4549): 1 µg/mL (≈ 0.698 µM)
MIC Coagulase Negative Staphylococcus (GC 4551) (Staphylococcus sp.; strain GC 4551): 2 µg/mL (≈ 1.4 µM)
MIC Enterococcus avium (GC 4558) (Enterococcus sp.): 2 µg/mL (≈ 1.4 µM)
MIC Enterococcus faecalis (ATCC 29212) (Enterococcus sp.): 2 µg/mL (≈ 1.4 µM)
MIC Enterococcus faecalis (GC 2242) (Enterococcus sp.): 2 µg/mL (≈ 1.4 µM)
MIC Enterococcus faecalis (GC 2691) (Enterococcus sp.): 2 µg/mL (≈ 1.4 µM)
MIC Enterococcus faecalis (GC 3059) (Enterococcus sp.): 1 µg/mL (≈ 0.698 µM)
MIC Enterococcus faecalis (GC 4552) (Enterococcus sp.): 2 µg/mL (≈ 1.4 µM)
MIC Enterococcus faecalis (GC 4553) (Enterococcus sp.): 2 µg/mL (≈ 1.4 µM)
MIC Enterococcus faecalis (GC 4554) (Enterococcus sp.): 2 µg/mL (≈ 1.4 µM)
MIC Enterococcus faecalis (GC 6189) (Enterococcus sp.): 1 µg/mL (≈ 0.698 µM)
MIC Enterococcus faecium (GC 2243) (Enterococcus sp.): 2 µg/mL (≈ 1.4 µM)
MIC Enterococcus faecium (GC 4556) (Enterococcus sp.): 2 µg/mL (≈ 1.4 µM)
MIC Enterococcus faecium (GC 4557) (Enterococcus sp.): 1 µg/mL (≈ 0.698 µM)
MIC Enterococcus faecalis (ATCC 29212) (Enterococcus sp.; inoculum 5×10^5 CFU/mL, strain ATCC 29212): 2 µg/mL (≈ 1.4 µM)
MIC Enterococcus faecalis (GC 2242) (Enterococcus sp.; inoculum 5×10^5 CFU/mL, strain GC 2242): 2 µg/mL (≈ 1.4 µM)
MIC Enterococcus faecium (GC 2243) (Enterococcus sp.; inoculum 5×10^5 CFU/mL, strain GC 2243): 2 µg/mL (≈ 1.4 µM)
MIC Enterococcus faecalis (GC 2691) (Enterococcus sp.; inoculum 5×10^5 CFU/mL, strain GC 2691): 2 µg/mL (≈ 1.4 µM)
MIC Enterococcus faecalis (GC 3059) (Enterococcus sp.; inoculum 5×10^5 CFU/mL, strain GC 3059): 1 µg/mL (≈ 0.698 µM)
MIC Enterococcus faecalis (GC 4552) (Enterococcus sp.; inoculum 5×10^5 CFU/mL, strain GC 4552): 2 µg/mL (≈ 1.4 µM)
MIC Enterococcus faecalis (GC 4553) (Enterococcus sp.; inoculum 5×10^5 CFU/mL, strain GC 4553): 2 µg/mL (≈ 1.4 µM)
MIC Enterococcus faecalis (GC 4554) (Enterococcus sp.; inoculum 5×10^5 CFU/mL, strain GC 4554): 2 µg/mL (≈ 1.4 µM)
MIC Enterococcus faecium (GC 4556) (Enterococcus sp.; inoculum 5×10^5 CFU/mL, strain GC 4556): 2 µg/mL (≈ 1.4 µM)
MIC Enterococcus faecium (GC 4557) (Enterococcus sp.; inoculum 5×10^5 CFU/mL, strain GC 4557): 1 µg/mL (≈ 0.698 µM)
MIC Enterococcus avium (GC 4558) (Enterococcus sp.; inoculum 5×10^5 CFU/mL, strain GC 4558): 2 µg/mL (≈ 1.4 µM)
MIC Enterococcus faecalis (GC 6189) (Enterococcus sp.; inoculum 5×10^5 CFU/mL, strain GC 6189): 1 µg/mL (≈ 0.698 µM)
median effective dose (ED50), Staphylococcus aureus-SMITH (GC 4543) [2]: 0.03 mg/kg

Source: US6914045B2, “Glycopeptide antibiotics” (Wyeth Holdings Corporation, priority 2001, dated 2005)
